Key:
Assay type in all cases: functional
[1] = system: Mycobacterium tuberculosis; assay: Antimicrobial activity against Mycobacterium tuberculosis H190 by agar dilution method
Escherichia coli = assay: Antimicrobial activity against Escherichia coli ATCC 25922 by agar dilution method
[2] = system: Mycobacterium tuberculosis; assay: Antimicrobial activity against Mycobacterium tuberculosis H160 by agar dilution method
[3] = system: Mycobacterium tuberculosis; assay: Antimicrobial activity against Mycobacterium tuberculosis H37Rv by agar dilution method
Staphylococcus aureus [4] = assay: Antimicrobial activity against Staphylococcus aureus SA52 by agar dilution method
Pseudomonas aeruginosa = assay: Antimicrobial activity against Pseudomonas aeruginosa ATCC 27753 by agar dilution method
Kluyveromyces marxianus = assay: Antifungal activity against Candida pseudotropicalis by agar dilution method
Staphylococcus aureus [5] = assay: Antimicrobial activity against Staphylococcus aureus SA87 by agar dilution method
Candida albicans = assay: Antifungal activity against Candida albicans by agar dilution method
Staphylococcus aureus [6] = assay: Antimicrobial activity against Staphylococcus aureus ATCC 105487 by agar dilution method
Staphylococcus aureus [7] = assay: Antimicrobial activity against Staphylococcus aureus ATCC 25923 by agar dilution method
Bacillus subtilis = assay: Antimicrobial activity against Bacillus subtilis ATCC 6633 by agar dilution method
Staphylococcus aureus [8] = assay: Antimicrobial activity against Staphylococcus aureus SA85 by agar dilution method
Enterococcus faecalis = assay: Antimicrobial activity against Enterococcus faecalis ATCC 29212 by agar dilution method

Row | Structure (SMILES) | MIC [1] | MIC (Escherichia coli) | MIC [2] | MIC [3] | MIC (Staphylococcus aureus [4]) | MIC (Pseudomonas aeruginosa) | MIC (Kluyveromyces marxianus) | MIC (Staphylococcus aureus [5]) | MIC (Candida albicans) | MIC (Staphylococcus aureus [6]) | MIC (Staphylococcus aureus [7]) | MIC (Bacillus subtilis) | MIC (Staphylococcus aureus [8]) | MIC (Enterococcus faecalis)
1 | CCCCC/C=C/C/C=C/CCCCCCCC(=O)OC(COC(=O)CCCCCCCCC)CO[C@@H]1O[C@H](CO)[C@H](O)[C@H](O)[C@H]1O (mixture of isomers) | > 128 mg/L | > 128 mg/L | > 128 mg/L | > 128 mg/L | > 128 mg/L | > 128 mg/L | > 128 mg/L | 64 mg/L | > 128 mg/L | 64 mg/L | > 128 mg/L | 128 mg/L | 64 mg/L | 128 mg/L
2 | CCCCC/C=C/C/C=C/CCCCCCCC(=O)OC(COC(=O)CCCCCCC)CO[C@@H]1O[C@H](CO)[C@H](O)[C@H](O)[C@H]1O (mixture of isomers) | 128 mg/L | > 128 mg/L | 64 mg/L | 64 mg/L | > 128 mg/L | > 128 mg/L | > 128 mg/L | 128 mg/L | > 128 mg/L | > 128 mg/L | > 128 mg/L | 128 mg/L | > 128 mg/L | > 128 mg/L
3 | CC/C=C/C/C=C/C/C=C/CCCCCCCC(=O)OCC(CO[C@@H]1O[C@H](CO)[C@H](O)[C@H](O)[C@H]1O)OC(=O)CCCCCCC/C=C/C/C=C/C/C=C/CC (mixture of isomers) | > 128 mg/L | > 128 mg/L | > 128 mg/L | > 128 mg/L | > 128 mg/L | > 128 mg/L | > 128 mg/L | > 128 mg/L | > 128 mg/L | > 128 mg/L | 128 mg/L | > 128 mg/L | > 128 mg/L | > 128 mg/L
4 | CCCCCCCC/C=C/CCCCCCCC(=O)OC(COC(=O)CCCCCCCCC)CO[C@@H]1O[C@H](CO)[C@H](O)[C@H](O)[C@H]1O (mixture of isomers) | > 128 mg/L | > 128 mg/L | > 128 mg/L | > 128 mg/L | > 128 mg/L | > 128 mg/L | > 128 mg/L | > 128 mg/L | > 128 mg/L | > 128 mg/L | 128 mg/L | 32 mg/L | 128 mg/L | > 128 mg/L
5 | CC/C=C/C/C=C/C/C=C/CCCCCCCC(=O)OC(COC(=O)CCCCCCCCC)CO[C@@H]1O[C@H](CO)[C@H](O)[C@H](O)[C@H]1O (mixture of isomers) | > 128 mg/L | > 128 mg/L | > 128 mg/L | > 128 mg/L | > 128 mg/L | > 128 mg/L | > 128 mg/L | 32 mg/L | > 128 mg/L | > 128 mg/L | > 128 mg/L | > 128 mg/L | 64 mg/L | > 128 mg/L
6 | CC/C=C/C/C=C/C/C=C/CCCCCCCC(=O)OC(COC(=O)CCCCCCC)CO[C@@H]1O[C@H](CO)[C@H](O)[C@H](O)[C@H]1O (mixture of isomers) | 128 mg/L | > 128 mg/L | 128 mg/L | 128 mg/L | > 128 mg/L | > 128 mg/L | > 128 mg/L | 64 mg/L | > 128 mg/L | > 128 mg/L | > 128 mg/L | 128 mg/L | > 128 mg/L | > 128 mg/L
7 | CCCCCCCC/C=C/CCCCCCCC(=O)OC(COC(=O)CCCCCCC)CO[C@@H]1O[C@H](CO)[C@H](O)[C@H](O)[C@H]1O (mixture of isomers) | 64 mg/L | > 128 mg/L | 64 mg/L | 128 mg/L | > 128 mg/L | > 128 mg/L | > 128 mg/L | 64 mg/L | > 128 mg/L | > 128 mg/L | > 128 mg/L | 128 mg/L | > 128 mg/L | > 128 mg/L
8 | CCCCC/C=C/C/C=C/CCCCCCCC(=O)OCC(CO[C@@H]1O[C@H](CO)[C@H](O)[C@H](O)[C@H]1O)OC(=O)CCCCCCC/C=C/C/C=C/CCCCC (mixture of isomers) | 128 mg/L | > 128 mg/L | 128 mg/L | 128 mg/L | > 128 mg/L | > 128 mg/L | > 128 mg/L | 128 mg/L | > 128 mg/L | > 128 mg/L | > 128 mg/L | 128 mg/L | > 128 mg/L | > 128 mg/L
9 | CCCCCCCC/C=C/CCCCCCCC(=O)OCC(CO[C@@H]1O[C@H](CO)[C@H](O)[C@H](O)[C@H]1O)OC(=O)CCCCCCC/C=C/CCCCCCCC (mixture of isomers) | > 128 mg/L | > 128 mg/L | > 128 mg/L | > 128 mg/L | > 128 mg/L | > 128 mg/L | > 128 mg/L | > 128 mg/L | > 128 mg/L | > 128 mg/L | > 128 mg/L | > 128 mg/L | > 128 mg/L | > 128 mg/L
